Test results as given in US20080058373A1, “Compositions and Methods for Treating or Preventing Glaucoma or Progression Thereof” (priority 2006, published 2008).

Tested on: New Zealand White rabbits
Test: Intraocular pressure (IOP) in rabbits, topical dosing four times daily
Format: in vivo
Settings: for Intraocular Pressure (MEAN): treated right eyes
Experimental: Seventy-five rabbits underwent two weeks of IOP training to condition them for IOP measurement. IOP was determined for both eyes of each animal using a Medtronic Solan, Model 30 classic pneumatonometer. Proparacaine hydrochloride 0.5% (1 drop) was delivered to each eye prior to IOP measurement. A two-point diurnal curve was established: IOP was recorded on Monday, Wednesday, and Friday of each week, at 8 a.m. and 12 p.m., with a ±1 hour range for each of these times. The time of the measurements was recorded.
On Days 1-31, animals received daily topical doses of the appropriate test article into the right eye. Animals were dosed four times per day, with doses administered 2 hours apart. Doses were administered using a calibrated 50-μL pipette. The eyelids were held close for 10 seconds immediately following dosing. The time of each dose administration was recorded.
Intraocular pressure (“IOP”) was determined for both eyes of each animal on Days 3, 5, 10, 12, 16, 18, 22, 24, 26, 30, and 32. IOP was evaluated with a Medtronic Solan, Model 30 classic pneumatonometer. Proparacaine hydrochloride 0.5% (1 drop) was delivered to each eye prior to IOP measurement. IOP was measured on Monday, Wednesday, and Friday of each week. A two-point diurnal curve was established: IOP was recorded at 8 a.m. and 12 p.m. on Day 3, and at 8 a.m. and 2 p.m. on later days, with a ±1 hour range for each of these times. The time of the measurements was recorded.
Descriptive statistics were prepared for IOP data of each treatment group (left and right eyes separately) at each measurement interval. The statistics included the number of observations (“N”), mean, standard deviation (“STD”), and standard error (“SEM”). Statistical analyses were conducted on IOP results using Statistical Analysis Systems (SAS Institute, Inc., Cary, N.C., V8.0). Parameters were evaluated using analysis of variance/GLM Procedure followed by Tukey's Standardized Range Test (Tukey, 1985) for post hoc comparisons of group means. The level of significance was set at a probability of p<0.05 for all statistical procedures. Group IOP means were compared at each interval, with left and right eyes compared separately.

**Q.** Which “Intraocular Pressure in Untreated Left Eyes (A.M. Readings), MEAN” value (shortened to “Intraocular Pressure … (A.M. Readings), MEAN”) (1 mg/g (Group D), Day 3) does the source give for `Cc1ccc2c(NCC(O)(CC(C)(C)c3cc(F)cc4c3OCC4)C(F)(F)F)cccc2n1` (centres unmarked) here?
**A.** 23.5 mmHg

**Q.** What about the “Intraocular Pressure … (A.M. Readings), MEAN” value (1 mg/g (Group D), Day 5) of the same molecule?
**A.** 24.4 mmHg

**Q.** And the “Intraocular Pressure … (A.M. Readings), MEAN” value (1 mg/g (Group D), Day 10)?
**A.** 24.5 mmHg

**Q.** What about the “Intraocular Pressure … (A.M. Readings), MEAN” value (1 mg/g (Group D), Day 12) of the same molecule?
**A.** 22.2 mmHg

**Q.** What about the “Intraocular Pressure … (A.M. Readings), MEAN” value (1 mg/g (Group D), Day 16) of the same molecule?
**A.** 21.6 mmHg

**Q.** And the “Intraocular Pressure … (A.M. Readings), MEAN” value (1 mg/g (Group D), Day 18)?
**A.** 23.3 mmHg

**Q.** And the “Intraocular Pressure … (A.M. Readings), MEAN” value (1 mg/g (Group D), Day 22)?
**A.** 22.4 mmHg

**Q.** What about the “Intraocular Pressure … (A.M. Readings), MEAN” value (1 mg/g (Group D), Day 24) of the same molecule?
**A.** 22.4 mmHg

**Q.** And the “Intraocular Pressure … (A.M. Readings), MEAN” value (1 mg/g (Group D), Day 26)?
**A.** 22.9 mmHg

**Q.** And the “Intraocular Pressure … (A.M. Readings), MEAN” value (1 mg/g (Group D), Day 30)?
**A.** 23.4 mmHg

**Q.** What about the “Intraocular Pressure … (A.M. Readings), MEAN” value (1 mg/g (Group D), Day 32) of the same molecule?
**A.** 24.1 mmHg

**Q.** What about the “Intraocular Pressure … (A.M. Readings), MEAN” value (1 mg/g (Group D), Pre-Study) of the same molecule?
**A.** 23.9 mmHg

**Q.** And the “Intraocular Pressure … (A.M. Readings), MEAN” value (5 mg/g (Group C), Day 3)?
**A.** 23.8 mmHg

**Q.** What about the “Intraocular Pressure … (A.M. Readings), MEAN” value (5 mg/g (Group C), Day 5) of the same molecule?
**A.** 24.4 mmHg

**Q.** What about the “Intraocular Pressure … (A.M. Readings), MEAN” value (5 mg/g (Group C), Day 10) of the same molecule?
**A.** 24.6 mmHg

**Q.** What about the “Intraocular Pressure … (A.M. Readings), MEAN” value (5 mg/g (Group C), Day 12) of the same molecule?
**A.** 23.8 mmHg

**Q.** What about the “Intraocular Pressure … (A.M. Readings), MEAN” value (5 mg/g (Group C), Day 16) of the same molecule?
**A.** 23.4 mmHg

**Q.** And the “Intraocular Pressure … (A.M. Readings), MEAN” value (5 mg/g (Group C), Day 18)?
**A.** 21.9 mmHg

**Q.** What about the “Intraocular Pressure … (A.M. Readings), MEAN” value (5 mg/g (Group C), Day 22) of the same molecule?
**A.** 21.6 mmHg

**Q.** And the “Intraocular Pressure … (A.M. Readings), MEAN” value (5 mg/g (Group C), Day 24)?
**A.** 22.1 mmHg

**Q.** And the “Intraocular Pressure … (A.M. Readings), MEAN” value (5 mg/g (Group C), Day 26)?
**A.** 21.7 mmHg

**Q.** And the “Intraocular Pressure … (A.M. Readings), MEAN” value (5 mg/g (Group C), Day 30)?
**A.** 22.6 mmHg

**Q.** What about the “Intraocular Pressure … (A.M. Readings), MEAN” value (5 mg/g (Group C), Day 32) of the same molecule?
**A.** 23.1 mmHg

**Q.** What about the “Intraocular Pressure … (A.M. Readings), MEAN” value (5 mg/g (Group C), Pre-Study) of the same molecule?
**A.** 24.2 mmHg

**Q.** What about the “Intraocular Pressure … (A.M. Readings), MEAN” value (10 mg/g (Group B), Day 3) of the same molecule?
**A.** 23.3 mmHg

**Q.** And the “Intraocular Pressure … (A.M. Readings), MEAN” value (10 mg/g (Group B), Day 5)?
**A.** 23.4 mmHg

**Q.** And the “Intraocular Pressure … (A.M. Readings), MEAN” value (10 mg/g (Group B), Day 10)?
**A.** 24.0 mmHg

**Q.** And the “Intraocular Pressure … (A.M. Readings), MEAN” value (10 mg/g (Group B), Day 12)?
**A.** 23.8 mmHg

**Q.** What about the “Intraocular Pressure … (A.M. Readings), MEAN” value (10 mg/g (Group B), Day 16) of the same molecule?
**A.** 22.9 mmHg

**Q.** What about the “Intraocular Pressure … (A.M. Readings), MEAN” value (10 mg/g (Group B), Day 18) of the same molecule?
**A.** 21.2 mmHg

**Q.** What about the “Intraocular Pressure … (A.M. Readings), MEAN” value (10 mg/g (Group B), Day 22) of the same molecule?
**A.** 21.8 mmHg

**Q.** And the “Intraocular Pressure … (A.M. Readings), MEAN” value (10 mg/g (Group B), Day 24)?
**A.** 20.2 mmHg

**Q.** What about the “Intraocular Pressure … (A.M. Readings), MEAN” value (10 mg/g (Group B), Day 26) of the same molecule?
**A.** 21.7 mmHg

**Q.** And the “Intraocular Pressure … (A.M. Readings), MEAN” value (10 mg/g (Group B), Day 30)?
**A.** 22.7 mmHg

**Q.** What about the “Intraocular Pressure … (A.M. Readings), MEAN” value (10 mg/g (Group B), Day 32) of the same molecule?
**A.** 22.9 mmHg

**Q.** What about the “Intraocular Pressure … (A.M. Readings), MEAN” value (10 mg/g (Group B), Pre-Study) of the same molecule?
**A.** 23.8 mmHg

**Q.** And the “Intraocular Pressure (MEAN)” value (A.M. readings, Day 3, 1 mg/g (Group D))?
**A.** 23.0 mmHg

**Q.** And the “Intraocular Pressure (MEAN)” value (A.M. readings, Day 3, 5 mg/g (Group C))?
**A.** 23.7 mmHg

**Q.** And the “Intraocular Pressure (MEAN)” value (A.M. readings, Day 3, 10 mg/g (Group B))?
**A.** 22.7 mmHg

**Q.** What about the “Intraocular Pressure (MEAN)” value (A.M. readings, Day 5, 1 mg/g (Group D)) of the same molecule?
**A.** 24.7 mmHg

**Q.** What about the “Intraocular Pressure (MEAN)” value (A.M. readings, Day 5, 5 mg/g (Group C)) of the same molecule?
**A.** 24.7 mmHg

**Q.** And the “Intraocular Pressure (MEAN)” value (A.M. readings, Day 5, 10 mg/g (Group B))?
**A.** 23.8 mmHg

**Q.** What about the “Intraocular Pressure (MEAN)” value (A.M. readings, Day 10, 1 mg/g (Group D)) of the same molecule?
**A.** 24.8 mmHg

**Q.** And the “Intraocular Pressure (MEAN)” value (A.M. readings, Day 10, 5 mg/g (Group C))?
**A.** 25.2 mmHg

**Q.** And the “Intraocular Pressure (MEAN)” value (A.M. readings, Day 10, 10 mg/g (Group B))?
**A.** 24.5 mmHg

**Q.** What about the “Intraocular Pressure (MEAN)” value (A.M. readings, Day 12, 1 mg/g (Group D)) of the same molecule?
**A.** 23.4 mmHg

**Q.** And the “Intraocular Pressure (MEAN)” value (A.M. readings, Day 12, 5 mg/g (Group C))?
**A.** 25.0 mmHg

**Q.** And the “Intraocular Pressure (MEAN)” value (A.M. readings, Day 12, 10 mg/g (Group B))?
**A.** 23.9 mmHg

**Q.** And the “Intraocular Pressure (MEAN)” value (A.M. readings, Day 16, 1 mg/g (Group D))?
**A.** 22.1 mmHg

**Q.** What about the “Intraocular Pressure (MEAN)” value (A.M. readings, Day 16, 5 mg/g (Group C)) of the same molecule?
**A.** 24.3 mmHg

**Q.** And the “Intraocular Pressure (MEAN)” value (A.M. readings, Day 16, 10 mg/g (Group B))?
**A.** 23.4 mmHg

**Q.** And the “Intraocular Pressure (MEAN)” value (A.M. readings, Day 18, 1 mg/g (Group D))?
**A.** 23.7 mmHg

**Q.** And the “Intraocular Pressure (MEAN)” value (A.M. readings, Day 18, 5 mg/g (Group C))?
**A.** 23.9 mmHg

**Q.** And the “Intraocular Pressure (MEAN)” value (A.M. readings, Day 18, 10 mg/g (Group B))?
**A.** 22.3 mmHg

**Q.** What about the “Intraocular Pressure (MEAN)” value (A.M. readings, Day 22, 1 mg/g (Group D)) of the same molecule?
**A.** 23.2 mmHg

**Q.** And the “Intraocular Pressure (MEAN)” value (A.M. readings, Day 22, 5 mg/g (Group C))?
**A.** 22.4 mmHg

**Q.** What about the “Intraocular Pressure (MEAN)” value (A.M. readings, Day 22, 10 mg/g (Group B)) of the same molecule?
**A.** 22.4 mmHg

**Q.** What about the “Intraocular Pressure (MEAN)” value (A.M. readings, Day 24, 1 mg/g (Group D)) of the same molecule?
**A.** 22.1 mmHg

**Q.** And the “Intraocular Pressure (MEAN)” value (A.M. readings, Day 24, 5 mg/g (Group C))?
**A.** 23.8 mmHg

**Q.** And the “Intraocular Pressure (MEAN)” value (A.M. readings, Day 24, 10 mg/g (Group B))?
**A.** 21.2 mmHg

**Q.** And the “Intraocular Pressure (MEAN)” value (A.M. readings, Day 26, 1 mg/g (Group D))?
**A.** 23.1 mmHg

**Q.** What about the “Intraocular Pressure (MEAN)” value (A.M. readings, Day 26, 5 mg/g (Group C)) of the same molecule?
**A.** 22.1 mmHg

**Q.** What about the “Intraocular Pressure (MEAN)” value (A.M. readings, Day 26, 10 mg/g (Group B)) of the same molecule?
**A.** 21.8 mmHg

**Q.** What about the “Intraocular Pressure (MEAN)” value (A.M. readings, Day 30, 1 mg/g (Group D)) of the same molecule?
**A.** 24.2 mmHg

**Q.** And the “Intraocular Pressure (MEAN)” value (A.M. readings, Day 30, 5 mg/g (Group C))?
**A.** 22.9 mmHg

**Q.** What about the “Intraocular Pressure (MEAN)” value (A.M. readings, Day 30, 10 mg/g (Group B)) of the same molecule?
**A.** 22.7 mmHg

**Q.** What about the “Intraocular Pressure (MEAN)” value (A.M. readings, Day 32, 1 mg/g (Group D)) of the same molecule?
**A.** 24.9 mmHg

**Q.** And the “Intraocular Pressure (MEAN)” value (A.M. readings, Day 32, 5 mg/g (Group C))?
**A.** 23.4 mmHg

**Q.** And the “Intraocular Pressure (MEAN)” value (A.M. readings, Day 32, 10 mg/g (Group B))?
**A.** 23.9 mmHg

**Q.** What about the “Intraocular Pressure (MEAN)” value (A.M. readings, Pre-Study, 1 mg/g (Group D)) of the same molecule?
**A.** 24.4 mmHg

**Q.** And the “Intraocular Pressure (MEAN)” value (A.M. readings, Pre-Study, 5 mg/g (Group C))?
**A.** 24.8 mmHg

**Q.** And the “Intraocular Pressure (MEAN)” value (A.M. readings, Pre-Study, 10 mg/g (Group B))?
**A.** 24.0 mmHg

**Q.** And the “Intraocular Pressure (MEAN)” value (P.M. readings, Day 3, 1 mg/g (Group D))?
**A.** 24.7 mmHg

**Q.** And the “Intraocular Pressure (MEAN)” value (P.M. readings, Day 3, 5 mg/g (Group C))?
**A.** 23.6 mmHg
